The species named for one data set is Rattus norvegicus. The experiment in a line: Unbound clearance in rat. The format is ADME, organism-based. The settings on record: in vivo.
The nature of data set [1]: Displacement of [3H]gabapentin from voltage gated calcium channel alpha2delta from pig cerebral cortex by scintillation counting. The format is tissue-based, Sus scrofa.
Data set [2] can be described thus: Lipophilicity, log D of the compound. The format is physicochemical. The following applies: octanol/water.
Data set [3] can be described thus: Plasma protein binding in human. The settings on record: read-out: PPB (converted). The data set is classed as ADME, cell-free.
Data set [4] is described as follows: Half life in rat. The settings on record: in vivo. The data set is classed as ADME, organism-based.
The next data set is filed under the species Canis familiaris. The experiment in a line: Unbound clearance in dog. The format is ADME, organism-based, Canis lupus familiaris. The settings on record: in vivo.
The next data set deals with Plasma. Description: Cmax in human. The settings on record: in vivo. The data set is classed as ADME, organism-based.
A short description of data set [5]: Tmax in human. The format is ADME. The settings on record: plasma.
Data set [6] can be described thus: Half life in human. The format is ADME, cell-free. The following applies: plasma.
Data set [7] in a line: Half life in dog. The data set is classed as ADME, organism-based, Canis lupus familiaris. The settings on record: in vivo.
The nature of data set [8]: Drug level in rat urine after 24 hrs. The following applies: read-out: Drug uptake. The format is ADME.

Structures are written as SMILES.

The term IC50 denotes the concentration that inhibits the measured activity by half. The logD is the decadic logarithm of the distribution of all forms, ionised or not, between an organic phase and buffer at a given pH. A higher logD goes with a more lipophilic compound. The half-life is how long it takes for the measured level to halve. Read a low half-life as rapid decline. A word on the Cmax: it is the maximum level reached in the sampled fluid or tissue. One may read the Tmax as the time at which the peak concentration occurs.

In the data set filed under Rattus norvegicus, `O=C(O)[C@@H]1C[C@H](OCc2ccc(Cl)cc2)CN1` returned a CL free of 26 mL/min/kg. In data set [1], the half-maximal inhibitory concentration (IC50) stood at 48 nM. In addition, the logD in [2] was -0.2. Also, in [3], the fraction unbound is 0.17. The same molecule gave a half-life in data set [4] of 24 min.
In the case of `C[C@@H](CNCC(=O)O)Oc1ccc(Cl)cc1`, in [1], the IC50 is 523 nM.
On the same count and under the same terms, in the case of `O=C(O)CNCCSc1ccc(Cl)cc1` it was 195 nM; in that of `O=C(O)CNCCOc1ccc(Cl)cc1`, more than 8000 nM; in that of `O=C(O)[C@@H]1C[C@H](Sc2ccc(Cl)cc2)CN1`, 72 nM.
Turning to `O=C(O)[C@@H]1C[C@H](Oc2ccc(Cl)cc2)CN1`, the IC50 in data set [1] came out at 32 nM.
Consider `O=C(O)[C@H]1C[C@@H](Oc2ccc(Cl)cc2)CN1`, for which the half-inhibitory concentration (IC50) in [1] was more than 10000 nM.
With `Cl.O=C(O)[C@@H]1C[C@H](Oc2cccc(Cl)c2)CN1`, the CL free is 49 mL/min/kg in the data set listed under Canis familiaris and 41 mL/min/kg in the data set listed under Rattus norvegicus. For the same molecule, in data set [1], the IC50 stood at 4 nM. This molecule registered a logD in [2] of -0.1. Further, in data set [3], the fraction unbound was 0.07. The half-life in data set [4] was 24 min; in data set [6], 138 min; in data set [7], 90 min. The molecule also showed a Cmax in the data set with Plasma of 2400 nM. For the same molecule, in data set [5], the Tmax worked out at 30 min.
Regarding `O=C(O)[C@@H]1C[C@H](Oc2ccccc2)CN1`, the IC50 in [1] was 102 nM.
With `O=C(O)[C@@H]1C[C@H](Oc2ccc(Cl)cn2)CN1`, in data set [1], the IC50 was found to be 399 nM.
For the molecule `O=C(O)[C@@H]1C[C@H](Oc2ccc3c(c2)OCC3)CN1`, the CL free in the data set listed under Rattus norvegicus came to 111 mL/min/kg. Further, in [1], the IC50 stood at 11 nM. In data set [2], this molecule returned a logD of -0.1. Besides, the fraction unbound in data set [3] was 0.11. This molecule also gave a half-life in data set [4] of 60 min.
As to `O=C(O)[C@@H]1C[C@H](Oc2ccc3ccccc3c2)CN1`, the IC50 in data set [1] was determined as 30 nM.
Consider `O=C(O)[C@@H]1C[C@H](Oc2ccc(OC(F)(F)F)cc2)CN1`, for which the half-maximal inhibitory concentration (IC50) in data set [1] was 1680 nM.
For the molecule `O=C(O)[C@@H]1C[C@H](Oc2cccc(F)c2)CN1`, the IC50 in [1] came to 17 nM.
Take `O=C(O)[C@@H]1C[C@H](Oc2ccccc2Cl)CN1`: the IC50 in data set [1] came to 52 nM.
For the molecule `CCC(C)O[C@@H]1CN[C@H](C(=O)O)C1` (stereo partly drawn), the IC50 in [1] was determined as 269 nM.
As to `N#Cc1ccccc1O[C@@H]1CN[C@H](C(=O)O)C1`, the IC50 in [1] is more than 10000 nM.
The same measure, in the same setting: under `O=C(O)[C@@H]1C[C@H](Oc2cccc(O)c2)CN1` stands 94 nM.
`O=C(O)[C@@H]1C[C@H](Oc2ccc(Cl)c(F)c2)CN1` returned a CL free in the data set filed under Rattus norvegicus of 108 mL/min/kg. Also, the IC50 in data set [1] was determined as 26 nM. This molecule had a logD in [2] of 0.1. The fraction unbound in data set [3] was 0.05. Further, the half-life in data set [4] was 90 min.
`O=C(O)[C@@H]1C[C@H](OCc2cccc(Cl)c2)CN1`: in data set [1], the IC50 worked out at 14 nM.
Take `O=C(O)[C@@H]1C[C@H](Sc2cccc(Cl)c2)CN1`: the CL free in the data set filed under Rattus norvegicus worked out at 56 mL/min/kg. The concentration for half-maximal inhibition (IC50) in data set [1] came to 7 nM. In data set [2], the logD was determined as 0.3. In addition, in data set [3], the fraction unbound was 0.16. This molecule gave a half-life in data set [4] of 18 min.
On to `CC(C)(C)OC(=O)[C@@H]1C[C@H](Oc2cccc(Cl)c2)CN1`, for which, in data set [1], the IC50 is 325 nM.
In the case of `CC(C)(C)OC(=O)N1C[C@@H](Oc2cccc(Cl)c2)C[C@H]1C(=O)O`, the IC50 in data set [1] was more than 1000 nM.
For the molecule `CCCN1C[C@@H](Oc2cccc(Cl)c2)C[C@H]1C(=O)O`, the IC50 in data set [1] was more than 1000 nM.
For `COC(=O)[C@@H]1C[C@H](Oc2cccc(Cl)c2)CN1C(=O)OC(C)(C)C`, the dose excreted at 24 h in data set [8] is 85%.
As for `C[C@@]1(C(=O)O)C[C@H](Oc2cccc(Cl)c2)CN1` (stereo in doubt; 36), in data set [1], the IC50 was determined as 1260 nM.
Regarding `C[C@@]1(C(=O)O)C[C@H](Oc2cccc(Cl)c2)CN1` (stereo in doubt; 37), the IC50 in [1] was more than 10000 nM.
Consider `NCC1(CC(=O)O)CCCCC1` [GABAPENTIN], for which the IC50 in data set [1] is […].

Values taken from ChEMBL document CHEMBL1777699, “Part 2: Design, synthesis and evaluation of hydroxyproline-derived α2δ ligands” (Bioorg Med Chem Lett, 2011).
